Results on 18 compounds are retold here after patent publication US20030176436A1, “Novel heterocyclic compounds as selective bacterial DHFR inhibitors and their uses thereof” (priority 2001, published 2003).

Molecules are shown by their SMILES. In brackets after ≈: the same amount, converted by molar mass. Where two headings read alike, the source gives them in different places. Where only a bound is given, the exact number is not on record here.

For assay [1], the target named is T1, bacterial DHFR (bDHFR) (Escherichia coli, UniProt P0ABQ4).
T1 construct: gift of Eric Brown, McMaster University
Description: DHFR enzyme assay, Ki determination, bacterial DHFR. The assay is classed as biochemical, E. coli. On the procedure:
Human and Bacterial DHFR: E. coli DHFR was kindly provided by Eric Brown of MacMaster University.
Dihydrofolic acid and NADPH were purchased from Sigma. Enzyme assays were adapted for microtitre format from a previously published procedure (2, 3). All assays were performed in a 250 μl volume in 96-well microtitre plates. Typical assays consisted of 20 nM DHFR (human or E. coli), 100 μM NADPH, and 50 μM dihydrofolic acid in 100 mM HEPES pH 8, 10 mM KCl, and 10 mM MgCl2. The assay was monitored spectrophotometrically for the conversion of NADPH to NADP+, which results in a decrease in absorbance at 340 nm.
The reaction was initiated by the addition of 125 μl of 100 μM dihydrofolic acid. The final concentrations in the assay were 20 nM DHFR, 100 μM NADPH, 50 μM dihydrofolic acid, and a range of 500 μM to 20 nM inhibitor compound. The final DMSO concentration was 2% of the total volume. Reactions were monitored as described above.

Assay [2] relates to S. aureus. Put plainly: Microdilution antimicrobial susceptibility test (MIC). To be noted: Staphylococcus aureus; MIC, average; read-out: S. aureus (μg/ml) avg. Format: cell-based. As for the experimental part:
Stock solutions of tested compounds were prepared in N,N-dimethylformamide (DMF) at a concentration of 5 mg/mL. Working solutions of the tested compounds were then prepared from the stock solutions, in Mueller-Hinton broth (MHB) with a starting concentration of 64 μg/mL.
Bacterial inocula were prepared from overnight culture (i.e., one fresh colony from agar plate in 5 ml MHB; H. influenzae was grown in MHB with the addition of yeast extract, haematin, and NAD), centrifuged 2×5 min/3000 rpm (for S. pneumoniae and H. influenzae, 2×10 min/3000 rpm), and dispensed in 5 ml of fresh MHB each time, such that the bacterial suspension is diluted to obtain 100 colony forming units (cfu) in a microplate well (100 μl total volume).
Microplate wells were filled with two-fold dilutions of test compound (50 μl), starting with 64 μg/ml. Wells were then filled with 50 μl of bacterial inoculum (final volume: 100 μl/well). The plates were incubated at 37° C. for 18-24 hours (S. pneumoniae was grown in a CO2-enriched atmosphere).

Setting [3] is: average, read-out: bDHFR Ki/(μM) avg.
[4] abbreviates: second part of table, read-out: bDHFR.

For `C=CCN(c1ncc2c(N)nc(N)nc2n1)C(C)c1cccc2ccccc12` (centres unmarked) [Compound 34], the Ki in assay [1] (setting [3]) is 0.014 µM. For the same compound, in assay [2], the MIC is 1 µg/mL (≈ 2.69 µM).

Regarding `CN(Cc1cnc2nc(N)nc(N)c2n1)c1cccc([N+](=O)[O-])c1` [Compound 21], the Ki in assay [1] (setting [3]) and in assay [1] (setting [4]) was 0.082 µM in each case. Moreover, the MIC in assay [2] was less than 0.125 µg/mL.

As for `CC(c1c2c(cc3ccccc13)CCCC2)N(C)c1ncc2c(N)nc(N)nc2n1` (centres unmarked) [Compound 27], the Ki in assay [1] (setting [3]) was found to be 0.008 µM. In addition, the MIC in assay [2] was 0.5 µg/mL (≈ 1.25 µM).

In the case of `CC(c1cccc2ccccc12)N(CCc1cccc(F)c1)c1ncc2c(N)nc(N)nc2n1` (centres unmarked) [Compound 47], the Ki in assay [1] (setting [3]) was 0.023 µM. Also, in assay [2], the MIC was 2 µg/mL (≈ 4.41 µM).

For `CC(c1ccc2c3c(cccc13)CC2)N(C)c1ncc2c(N)nc(N)nc2n1` (centres unmarked) [Compound 28], the Ki in assay [1] (setting [3]) was determined as 0.02 µM. Besides, in assay [2], the MIC was less than 0.125 µg/mL.

In the case of `CC(c1cccc2ccccc12)N(C)c1ncc2c(N)nc(N)nc2n1` (centres unmarked) [Compound 24], in assay [1] (setting [3]), the Ki came to 0.015 µM. Further, the MIC in assay [2] was 0.25 µg/mL (≈ 0.724 µM).

As to `CC(c1cccc2ccccc12)N(CCC(C)(C)C)c1ncc2c(N)nc(N)nc2n1` (centres unmarked) [Compound 60], the Ki in assay [1] (setting [3]) came out at 0.029 µM. The MIC in assay [2] turned out to be 2 µg/mL (≈ 4.81 µM).

As for `Cc1ccc([C@@H](C)N(CC2CC2)c2ncc3c(N)nc(N)nc3n2)c2ccccc12` [Compound 54], the Ki in assay [1] (setting [3]) is 0.01 µM. Besides, the MIC in assay [2] is 2 µg/mL (≈ 5.01 µM).

As to `CCc1ccc2ccc(C(C)N(CC3CC3)c3ncc4c(N)nc(N)nc4n3)cc2c1` (centres unmarked) [Compound 53], the Ki in assay [1] (setting [3]) was 0.03 µM. For the same compound, in assay [2], the MIC was determined as 2 µg/mL (≈ 4.84 µM).

Take `CCN(c1ncc2c(N)nc(N)nc2n1)[C@H](C)c1csc2ccccc12` [Compound 36]: the Ki in assay [1] (setting [3]) and in assay [1] (setting [4]) was 0.005 µM throughout. Besides, in assay [2], the MIC was less than 0.125 µg/mL.

For `Nc1nc(N)c2nc(CNc3cccc(OCc4ccccc4)c3)cnc2n1` [Compound 20], in assay [1] (setting [3]), the Ki is 0.062 µM. In assay [2], the MIC was found to be 0.5 µg/mL (≈ 1.34 µM).

Regarding `CC(c1cccc2ccccc12)N(CCCCO)c1ncc2c(N)nc(N)nc2n1` (centres unmarked) [Compound 58], in assay [1] (setting [3]), the Ki came to 0.015 µM. Moreover, the MIC in assay [2] worked out at 2 µg/mL (≈ 4.96 µM).

For `CC(c1ccc(Cl)c2ccccc12)N(CC1CC1)c1ncc2c(N)nc(N)nc2n1` (centres unmarked) [Compound 55], the Ki in assay [1] (setting [3]) was 0.019 µM. The MIC in assay [2] is 2 µg/mL (≈ 4.76 µM).

In the case of `CC(c1cccc2ccccc12)N(CCc1ccccc1)c1ncc2c(N)nc(N)nc2n1` (centres unmarked) [Compound 26], in assay [1] (setting [3]), the Ki was 0.02 µM. In addition, the MIC in assay [2] came to 1 µg/mL (≈ 2.3 µM).

`CCC(c1ccc(F)c2ccccc12)N(C)c1ncc2c(N)nc(N)nc2n1` (centres unmarked) [Compound 40]: the Ki in assay [1] (setting [3]) worked out at 0.004 µM. Also, the MIC in assay [2] was less than 0.125 µg/mL.

As to `CCCOCCN(c1ncc2c(N)nc(N)nc2n1)C(C)c1cccc2ccccc12` (centres unmarked) [Compound 49], the Ki in assay [1] (setting [3]) worked out at 0.02 µM. Besides, in assay [2], the MIC turned out to be 2 µg/mL (≈ 4.79 µM).

Take `CCN(c1ncc2c(N)nc(N)nc2n1)[C@H](C)c1ccc(F)c2ccccc12` [Compound 37]: the Ki in assay [1] (setting [3]) came out at 0.003 µM. In addition, the MIC in assay [2] is less than 0.125 µg/mL.

For `CCc1ccc2ccccc2c1C(C)N(C)c1ncc2c(N)nc(N)nc2n1` (centres unmarked) [Compound 56], in assay [1] (setting [3]), the Ki was 0.093 µM. The MIC in assay [2] stood at 2 µg/mL (≈ 5.36 µM).
